Source: patent US8980934B2, “Kinase inhibitors and method of treating cancer with same” (University Health Network, priority 2012, dated 2015)

How the values were obtained:
Format in all cases: cell-based
[1] = test system: colon 12 tumor initiating cells; assay: Colon tumor-initiating cell growth inhibition, Alamar Blue assay; settings: 216 h, colon TICs, 9 days culture, read-out: Tumor Initiating Cell Line GI50 Range colon 12
Text: (§1) Non-tissue or tissure cultured treated T-75 flask and 96-well plates were purchased from VWR. Vitamin B-27 supplement, MEM NEAA (minimum essential medium non essential amino acids), sodium pyruvate, L-glutamine, N2 supplement, penicillin-streptomycin and fungizone/amphotericin B were obtained from Invitrogen. Lipid mixture, heparin and EGF were purchased from Sigma; bFGF from BD Biosciences. Colon tumor initiating cells (TICs) were routinely maintained using non-tissue cultured treated T-75 flasks in DMEM:F12 medium containing 0.2XB-27 supplement, 4 ug/ml heparin, 1XMEM NEAA, 1Xsodium pyruvate, 1 mM glutamine, 10 pg/ul bFGF, 20 pg/ul EGF, 1×N2 supplement, lipid mixture, penicillin-streptomycin and fungizone/amphotericin B. Ovarian TICs were routinely maintained using tissue cultured treated T-75 flasks in DMEM:F12 medium containing 1XB-27 supplement, 4 ug/ml heparin, 20 pg/ul bFGF, 20 pg/ul EGF and penicillin-streptomycin.
(§2) Compounds described herein were dissolved in DMSO and further diluted in cell culture medium for GI50 determination. Colon TICs were trypsinized and seeded into non-tissue cultured treated 96-well plates with 4,000 cells/well. After 24 h, compound was added into the cell culture at different concentrations, and the final concentration of DMSO was adjusted to 0.1%. Cells were then cultured at 37° C. for 9 days. Ovarian TICs were trypsinized and seeded into tissue cultured treated 96-well plates with 1,000 cells/well. After 24 h, compound was added into the cell culture at different concentrations, and the final concentration of DMSO was adjusted to 0.1%. Cells were then cultured at 37° C. for 6 days. Cell viability was assessed by Alamar Blue assay: 10 ul of Alamar Blue was added into each well. After 4 hours incubation at 37° C., fluorescence was recorded at excitation 544 and emission 590. GI50 (Growth inhibition) was calculated using GraphPad Prism 4.0 software. Cell growth inhibition data for compounds described herein is tabulated below (Table 2). The GI50 ranges are indicated as “A,” and “B”, for values less than or equal to 0.1 μM: those greater than 0.1 μM and less than or equal to 0.5 μM, respectively.

[2] = test system: ovarian 2393A tumor initiating cells; assay: Ovarian tumor-initiating cell growth inhibition, Alamar Blue assay; settings: 144 h, ovarian TICs, 6 days culture, read-out: Tumor Initiating Cell Line GI50 Range ovarian 2393A
Text: as §1, §2

[3] = test system: HCT116 colon cancer cells; assay: Cancer cell growth inhibition, Sulforhodamine B assay; settings: Homo sapiens, HCT-116, 120 h; HCT116, 5 days culture, SRB; read-out: Cancer Cell Line GI50 Range HCT116
Protocol: (§3) Breast cancer cells (MDA-MB-231), colon cancer cells (HCT116) and ovarian cancer cells (PA-1) were seeded (1000 to 4000 in 80 μl per well depending on the cell growth rate) into 96 well plates 24 hours before compound overlay. Compounds were prepared as 10 mM stock solutions in 100% DMSO which were diluted with DMEM (Dulbecco's Modified Eagle's Medium) cell growth Medium (Invitrogen, Burlington, ON, Canada) containing 10% FBS (Fetal Bovine Serum) to concentrations ranging from 50 nM to 250 μM. Aliquots (20 μl) from each concentration were overlaid to 80 μl of the pre-seeded cells in the 96 well plates to make final concentrations of 10 nM to 50 μM. The cells were cultured for 5 days before the Sulforhodamine B assay (SRB) was performed to determine the compound's cell growth inhibition activity.
(§4) Sulforhodamine B (purchased from Sigma, Oakville, ON, Canada) is a water-soluble dye that binds to the basic amino acids of the cellular proteins. Thus, colorimetric measurement of the bound dye provides an estimate of the total protein mass that is related to the cell number. the cells are fixed in situ by gently aspirating off the culture media and adding 50 μl ice cold 10% Trichloroacetic Acid (TCA) per well and incubate at 4° C. for 30-60 min. The plates are washed with H2O five times and allowed to air dry for 5 min. Addition of 50 μl 0.4% (w/v) SRB solution in 1% (v/v) acetic acid to each well and incubatation for 30 min at RT completes the staining reaction. Following staining, plates are washed four times with 1% acetic acid to remove unbound dye and then allowed to air dry for 5 min. The stain is solubilized with 100 μl of 10 mM Tris pH 10.5 per well. Absorbance is read at 570 nm.
(§5) The percentage (%) of relative growth inhibition was calculated by comparing to DMSO treated only cells (100%). GI50's were determined for compounds with cytotoxic activity. The GI50 was calculated using GraphPad PRISM software (GraphPad Software, Inc., San Diego, Calif., USA). GI50 (growth inhibition) is the compound concentration that causes 50% inhibition of cell growth.
(§6) In Table 1 below, GI50 value ranges for several compound examples against breast cancer cell lines (MDA-MB-231), colon cancer cell lines (HCT116) and ovarian cancer cell lines (PA-1) are given. […] The GI50 ranges are indicated as “A,” “B,” and “C,” for values less than or equal to 0.1 μM; those greater than 0.1 μM and less than or equal to 0.5 μM; and those greater than 0.5 μM, respectively.

[4] = test system: PA-1 ovarian cancer cells; assay: as above; settings: 120 h; PA-1, 5 days culture, SRB; read-out: Cancer Cell Line GI50 Range PA-1
Protocol: as §3, §4, §5, §6

[5] = test system: MDA-MB-231 breast cancer cells; assay: as above; settings: Homo sapiens, 120 h; MDA-MB-231, 5 days culture, SRB; read-out: Cancer Cell Line GI50 Range MDA-MB-231
Protocol: as §3, §4, §5, §6

Row | Compound | GI50 [1] | GI50 [2] | GI50 [3] | GI50 [4] | GI50 [5]
1 | O=C(N[C@@H](c1ccccn1)C1CCCC1)c1ccc2[nH]nc(-c3ccc(N4CC5(COC5)C4)cc3)c2c1 [Example A8, (R)-3-(4-(2-Oxa-6-azaspiro[3.3]heptan-6-yl)phenyl)-N-(cyclopentyl(pyridin-2-yl)methyl)-1H-indazole-5-carboxamide] | ≤ 100 nM | ≤ 100 nM | ≤ 100 nM | ≤ 100 nM | ≤ 100 nM
2 | CC(C)C(NC(=O)c1ccc2[nH]nc(-c3ccc(N4CC5(COC5)C4)cc3)c2c1)c1ccccc1Cl (stereo not drawn) [Example A11, 3-(4-(2-Oxa-6-azaspiro[3.3]heptan-6-yl)phenyl)-N-(1-(2-chlorophenyl)-2-methylpropyl)-1H-indazole-5-carboxamide] | ≤ 100 nM | ≤ 100 nM | ≤ 100 nM | ≤ 100 nM | ≤ 100 nM
3 | O=C(N[C@@H](c1ccccn1)C1CC1)c1ccc2[nH]nc(-c3ccc(N4CC5(COC5)C4)cc3)c2c1 [Example A6, (R)-3-(4-(2-oxa-6-azaspiro[3.3]heptan-6-yl)phenyl)-N-(cyclopropyl(pyridin-2-yl)methyl)-1H-indazole-5-carboxamide] | 100 to 500 nM | 100 to 500 nM | ≤ 100 nM | ≤ 100 nM | 100 to 500 nM
